Measurements from PMC4496089, “Screening for FtsZ Dimerization Inhibitors Using Fluorescence Cross-Correlation Spectroscopy and Surface Resonance Plasmon Analysis” (PLoS ONE, 2015).
Converted amounts (≈) assume the structure as drawn. “Also recorded” adds a separate entry of the source. Read-outs that look alike come from different tables or passages of the source.

Assays:
[1] = tested on: S. aureus ATCC 29213 (MSSA); experiment: Antibiotic susceptibility test (broth microdilution MIC); format: cell-based, Staphylococcus aureus; settings: for MIC: Staphylococcus aureus, read-out: Minimal inhibitory concentration
Description: (§1) Antimicrobial susceptibility testing was performed by broth microdilution in cation-adjusted Mueller–Hinton broth (CAMHB) according to the CLSI guidelines. Overnight culture was suspended in CAMHB, and the OD625 was measured using an Ultrospec 6300 pro spectrophotometer (GE Healthcare). The culture suspension was diluted to 0.01 of the OD625, and 5 μL of it was inoculated into test medium containing the test chemical. Then incubation was performed at 35°C for 16 to 20 hours. The final inoculum size corresponded to ca. 5 x 10^4 CFU per well, which corresponded to ca. 5 x 10^5 CFU/mL. The minimum inhibitory concentration (MIC) endpoint was defined as the lowest concentration of the test chemical that inhibited bacterial growth as detected by the unaided eye.

[2] = tested on: S. aureus FtsZ (FtsZ^K175D_N-terminal-EGFP and FtsZ_C-terminal-mCherry); experiment: FCCS screening for inhibition of GTP-dependent head-to-tail dimerization of fragmented FtsZ; format: biochemical, Staphylococcus aureus; settings: from FCCS binding ratio; chemical 20 or 100 μM, GTP 2 mM, 30 min; mean (SD), n = 3
Description: The purified FtsZ^K175D_N-terminal-EGFP and FtsZ_C-terminal-mCherry were mixed in 0.44–0.85 μM each in a buffer composed of 50 mM Tris-HCl [pH 8.0], 500 mM Na2SO4 and 5 mM MgCl2. Mixed samples were dispensed as 48.5 μL aliquots into a 384-well glass bottom microplate (Olympus) and a 0.5 μL aliquot of the chemical at a concentration of 2 or 10 mM was added to each well. The final concentration of the chemicals was 20 or 100 μM. After mixing, FCCS measurement was performed (premeasurement, data not shown). After premeasurement of FCCS, 1 μL of GTP (100 mM) was added to each well (final concentration: 2 mM). After mixing and 30 min incubation at room temperature, FCCS measurement was performed. Using samples purified on a different day, independent screening was performed 3 times.
The data acquired from FCCS were analyzed using ZEN software (Zeiss, Germany). The fluorescence autocorrelation functions from the green, G G (τ), and red channels, G R (τ), and the fluorescence cross-correlation functions, G C (τ) were calculated according to the normalized correlation function. GG(τ)=1+⟨δIG(t)⋅δIG(t+τ)⟩/⟨IG(t)⟩⋅⟨IG(t)⟩ (1) GR(τ)=1+⟨δIR(t)⋅δIR(t+τ)⟩/⟨IR(t)⟩⋅⟨IR(t)⟩ (2) GC(τ)=1+⟨δIG(t)⋅δIR(t+τ)⟩/⟨IG(t)⟩⋅⟨IR(t)⟩ (3) where τ denotes the time delay, I G is the fluorescent intensity of the green channel, and I R is the fluorescent intensity of the red channel. The acquired autocorrelations were fitted using a two-component model, and cross-correlation was fitted using a one-component model. G(τ)=1+1−Ftriplet+Ftripletexp(−τ/τtrplet)/N(1−Ftriplet)×((Ffast/1+τ/τfast)1/1+τ/s^2τfast+(Fslow/1+τ/τslow)1/1+τ/s^2τslow) (4) where F triplet is the average fraction of triplet state molecules (in the fitting of cross-correlation, assuming F triplet is 0), τ triplet is the triplet relaxation time, and F fast and F slow are the fractions of the fast and slow components, respectively. τ fast and τ slow are the diffusion times of the fast and slow components, respectively. In the fitting of G G (τ), τ fast was fixed in the range from 100 to 200 μs. In the fitting of G R (τ), τ fast was fixed in the range from 200 to 300 μs. N is the average number of fluorescent particles in the excitation-detection volume defined by radius w, z is half of the long axis of the confocal volume element, and s is the structural parameter representing the ratio s = z/w. The values of w i (i = G or R) are determined from the diffusion coefficients of the rhodamine 6G and Alexa Fluor 594 used as standard dyes, respectively.
The average number calculated from autocorrelation N G and N R and complex cross-correlated particles N C is given by NG=1/GG(0)−1 (5) NR=1/GR(0)−1 (6) NC=GC(0)−1/(GR(0)−1)⋅(GG(0)−1) (7)
The binding ratio (BR), which directly indicates the tendency of interaction between FtsZ^K175D_N-terminal-EGFP and FtsZ_C-terminal-mCherry, was defined by the following Eq (8). When a chemical has a higher inhibitory effect, BR should be lower. BR=NC/NG (8)
Moreover, inhibition % was calculated using the following Eq (9). The inhibition % should be higher when the chemical has a higher inhibitory effect. inhibition%=BRDMSO,GTP(+)−BRchemical,GTP(+)/BRDMSO,GTP(+)×100 (9) where BR DMSO,GTP(+) is the binding ratio in the presence of DMSO (vehicle) and GTP is the control value indicating no inhibition, BR chemical,GTP(+) is the binding ratio in the presence a chemical and GTP. Considering the background, Eq (9) can be shown as follows. inhibition%=(BRDMSO,GTP(+)−BRbackground)−(BRchemical,GTP(+)−BRbackground)/BRDMSO,GTP(+)−BRbackground×100=BRDMSO,GTP(+)−BRchemical,GTP(+)/BRDMSO,GTP(+)−BRbackground×100 (10) where BR background is the binding ratio of the background obtained in the absence of GTP.

[3] = tested on: E. coli ATCC 25922; experiment: Antibiotic susceptibility test (broth microdilution MIC); format: cell-based; settings: Escherichia coli
Description: as §1

[4] = tested on: H. influenzae ATCC 10211; experiment: as above; format: cell-based; settings: Haemophilus influenzae
Description: as §1

[5] = tested on: P. aeruginosa ATCC 27853; experiment: as above; format: cell-based; settings: Pseudomonas aeruginosa
Description: as §1

[6] = tested on: E. faecalis SR7914 (VRE); experiment: as above; format: cell-based; settings: Enterococcus faecalis, read-out: Minimal inhibitory concentration
Description: as §1

[7] = tested on: E. faecalis ATCC 29212; experiment: as above; format: cell-based; settings: Enterococcus faecalis
Description: as §1

[8] = tested on: K. pneumoniae ATCC 13883; experiment: as above; format: cell-based; settings: Klebsiella pneumoniae
Description: as §1

[9] = tested on: A. baumannii ATCC 19606; experiment: as above; format: cell-based; settings: Acinetobacter baumannii
Description: as §1

[10] = tested on: S. pneumoniae Type I; experiment: as above; format: cell-based; settings: Streptococcus pneumoniae, read-out: Minimal inhibitory concentration
Description: as §1

[11] = tested on: S. aureus SR3637 (MRSA); experiment: as above; format: cell-based; settings: Staphylococcus aureus, read-out: Minimal inhibitory concentration
Description: as §1

[12] = tested on: E. faecium SR7917 (VRE); experiment: as above; format: cell-based; settings: Enterococcus faecium, read-out: Minimal inhibitory concentration
Description: as §1

[13] = tested on: E. faecium ATCC 19434; experiment: as above; format: cell-based; settings: Enterococcus faecium
Description: as §1

[14] = tested on: panel of type strains of Gram-positive and Gram-negative bacterial pathogens; experiment: Antibiotic susceptibility test, summary over the whole panel; format: cell-based; settings: MIC panel of Gram-positive and Gram-negative type strains
Description: as §1

[15] = S. aureus ATCC 29213 (MSSA), CAMHB, 35°C, 16 to 20 hours
[16] = ATCC25922, E. coli ATCC 25922, CAMHB, 35°C, 16 to 20 hours, read-out: Minimal inhibitory concentration
[17] = ATCC10211, H. influenzae ATCC 10211, CAMHB, 35°C, 16 to 20 hours, read-out: Minimal inhibitory concentration
[18] = ATCC27853, P. aeruginosa ATCC 27853, CAMHB, 35°C, 16 to 20 hours, read-out: Minimal inhibitory concentration
[19] = E. faecalis SR7914 (VRE), CAMHB, 35°C, 16 to 20 hours
[20] = ATCC29212, E. faecalis ATCC 29212, CAMHB, 35°C, 16 to 20 hours, read-out: Minimal inhibitory concentration
[21] = ATCC13883, K. pneumoniae ATCC 13883, CAMHB, 35°C, 16 to 20 hours, read-out: Minimal inhibitory concentration
[22] = ATCC19606, A. baumannii ATCC 19606, CAMHB, 35°C, 16 to 20 hours, read-out: Minimal inhibitory concentration
[23] = S. pneumoniae Type I, CAMHB, 35°C, 16 to 20 hours
[24] = S. aureus SR3637 (MRSA), CAMHB, 35°C, 16 to 20 hours
[25] = E. faecium SR7917 (VRE), CAMHB, 35°C, 16 to 20 hours
[26] = ATCC19434, E. faecium ATCC 19434, CAMHB, 35°C, 16 to 20 hours, read-out: Minimal inhibitory concentration

| Compound | MIC [1, 15] [µg/mL] | inhibition % [2] | MIC [3, 16] [µg/mL] | MIC [4, 17] [µg/mL] | MIC [5, 18] [µg/mL] | MIC [6, 19] [µg/mL] | MIC [7, 20] [µg/mL] | MIC [8, 21] [µg/mL] | MIC [9, 22] [µg/mL] | MIC [10, 23] [µg/mL] | MIC [11, 24] [µg/mL] | MIC [12, 25] [µg/mL] | MIC [13, 26] [µg/mL] | further results |
| --- | --- | --- | --- | --- | --- | --- | --- | --- | --- | --- | --- | --- | --- | --- |
| O=C(c1cccc(-n2cnnc2)c1)N1CC2CCC(Cc3cccc(Cl)c3)C2C1 (centres unmarked) [Chemical #5] | > 64 | 46.7 (11.4) % | > 64 | > 64 | > 64 | > 64 | > 64 | > 64 | > 64 | > 64 | > 64 | > 64 | > 64 |  |
| COc1ccc(C2C=C(c3ccc(Br)cc3)N=C3NC(NS(C)(=O)=O)=NN32)cc1 (centres unmarked) [Chemical #1] | > 64 | 88.6 (6.8) % | > 64 | > 64 | > 64 | > 64 | > 64 | > 64 | > 64 | > 64 | > 64 | > 64 | > 64 |  |
| COCCN(CCOC)P1(=O)C=C(c2ccccc2)SC(c2ccccc2)=C1 [Chemical #2] |  | 69.0 (2.4) % |  |  |  |  |  |  |  |  |  |  |  | MIC [1]: 8 µg/mL (≈ 19.3 µM); antibacterial activity (in words) [14]: inhibited the growth of Staphylococcus spp. and Enterococcus spp; also recorded: no activity against other Gram-positive species or any of the Gram-negative pathogens tested; MIC ([3]; ATCC25922, read-out: Minimal inhibitory concentration): > 64 µg/mL; MIC ([4]; ATCC10211, read-out: Minimal inhibitory concentration): > 64 µg/mL; MIC ([5]; ATCC27853, read-out: Minimal inhibitory concentration): > 64 µg/mL; MIC ([6]; VRE): 32 µg/mL (≈ 77 µM); MIC ([7]; ATCC29212, read-out: Minimal inhibitory concentration): 32 µg/mL (≈ 77 µM); MIC ([8]; ATCC13883, read-out: Minimal inhibitory concentration): > 64 µg/mL; MIC ([9]; ATCC19606, read-out: Minimal inhibitory concentration): > 64 µg/mL; MIC [10]: 64 µg/mL (≈ 154 µM); MIC ([11]; MRSA): 8 µg/mL (≈ 19.3 µM); MIC ([12]; VRE): > 64 µg/mL; MIC ([13]; ATCC19434, read-out: Minimal inhibitory concentration): > 64 µg/mL |
| O=C(NNS(=O)(=O)c1cc(Cl)ccc1Cl)c1cc2c(s1)CCCC2 [Chemical #3] | > 64 | 68.5 (1.7) % | > 64 | > 64 | > 64 | > 64 | > 64 | > 64 | > 64 | > 64 | > 64 | > 64 | > 64 |  |
| O=C(NNC(=S)NC1CC2CCC1C2)c1cc2ccccc2cc1O (centres unmarked) [Chemical #4] | > 32 | 64.4 (5.8) % | > 32 | > 32 | > 32 | > 32 | > 32 | > 32 | > 32 | > 32 | > 32 | > 32 | > 32 |  |
| CS(=O)(=O)NC1=NN2C(=NC(c3ccccc3)=CC2c2ccccc2Cl)N1 (centres unmarked) [Chemical #6] | > 64 | 40.9 (1.2) % | > 64 | > 64 | > 64 | > 64 | > 64 | > 64 | > 64 | > 64 | > 64 | > 64 | > 64 |  |
| C[C@@H](O)[C@H]1C(=O)N2C(C(=O)O)=C(S[C@@H]3CN[C@H](CNS(N)(=O)=O)C3)[C@H](C)[C@H]12 [Doripenem, reference compound] | ≤ 0.063 |  | ≤ 0.063 | 0.125 (≈ 0.297 µM) | 0.5 (≈ 1.19 µM) | 8 (≈ 19 µM) | 1 (≈ 2.38 µM) | 0.125 (≈ 0.297 µM) | 1 (≈ 2.38 µM) | ≤ 0.063 | 16 (≈ 38 µM) | 64 (≈ 152 µM) | 8 (≈ 19 µM) | Minimal inhibitory concentration [1, 15]: ≦0.063 μg/mL |
